Results from patent US20130267588A1, “HYDROXYTYROSOL ETHERS” (FUNDACIO IMIM, priority 2010, published 2013).
Where two headings read alike, the source gives them in different places.

Assays:
[1] = tested on: male Wistar rats; assay: Acute intake experiment in animals fasting for 24 hours; type: in vivo, rat; details: rats fasted 24 hours, food given 30 min after injection, n=8
Protocol: All the in vivo experiments were performed using male Wistar rats weighing 200-500 g. The animals were housed in individual cages in a room with controlled temperature (23° C.) and humidity (50%) with a 12/12 light and dark cycle. The animals had access to water and food ad libitum except in specific experimental methods. The animals were manipulated once a day for this two days before the experimental sessions. All the products were dissolved in a mixture of DMSO (5%), Tween 60 (5%)/saline (90%). The in vivo experiments included the analysis of intake and effects on general behavior. None of the assayed compounds altered the general behavior of the animal but some reduced the animal's appetite (FIGS. 1 to 8).
The acute effect on the intake of all the products was tested in animals fasting for 24 hours.
Thirty minutes after injection, previously weighed food was put in the cage. The food was weighed 30, 60, 120 and 240 minutes after starting the test. All the intake experiments were performed with groups of 8 animals (n=8) (FIGS. 1 to 8). […] The compounds (Z)-1-(2-phenylethoxy)octadec-9-ene (Example 3, FIG. 1) and (Z)-1-(2-(3,4-methylenedioxyphenyl)ethoxy)octadec-9-ene (Example 2, FIG. 3) reduced intake by about 25%. All the compounds had long-term effects, the reduction of intake being significant 4 hours after administration.

[2] = target: T1, CB1 receptor (Rattus norvegicus, UniProt P20272); assay: Ligand-receptor assay for the CB1 receptor, displacement of [3H] SR141716; type: binding; details: rat cerebellum membranes
T1 construct: displace [^3H]; from tissue; host or cells: rat cerebellum membranes
T1 sequence (P20272 whole entry): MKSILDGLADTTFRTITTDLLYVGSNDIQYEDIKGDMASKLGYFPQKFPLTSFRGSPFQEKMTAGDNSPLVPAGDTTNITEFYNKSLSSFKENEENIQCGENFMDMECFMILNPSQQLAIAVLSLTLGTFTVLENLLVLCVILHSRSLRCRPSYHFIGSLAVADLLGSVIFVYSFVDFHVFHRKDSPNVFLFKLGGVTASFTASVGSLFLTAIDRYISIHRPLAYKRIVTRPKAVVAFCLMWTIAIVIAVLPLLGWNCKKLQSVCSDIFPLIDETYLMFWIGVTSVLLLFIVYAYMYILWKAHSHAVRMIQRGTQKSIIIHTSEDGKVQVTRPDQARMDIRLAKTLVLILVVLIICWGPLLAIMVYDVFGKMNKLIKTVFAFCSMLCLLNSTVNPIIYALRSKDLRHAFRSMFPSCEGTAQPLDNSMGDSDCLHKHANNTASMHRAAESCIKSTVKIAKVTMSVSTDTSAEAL
Protocol: The ligand-receptor assay for the CB1 receptor evaluates the capacity of the synthesized compounds to displace [^3H]
The ligand-receptor assay was performed using the CB1 labeled antagonist, [^3H] […] 450 μL of pH-regulating solution A (50 mM Tris pH=7.4 with 0.5% bovine serum albumin (BSA)), 100-200 μg rat cerebellum membranes, the diluted product and the labeled CB1 antagonist, [^3H] […] After incubating for […] at 37° C., the reaction was stopped with 1 mL of pH-regulating solution A. The mixture was centrifuged at 5000 rpm for 5 minutes. The supernatant was discarded and the pellet washed with another 1 mL of pH-regulating solution A, centrifuged and the supernatant one again was discarded. Scintillation liquid was added and the samples were read in a beta particle counter (Liquid Scintillation Analyzer, Tri-Carb 2100 TR, PACKARD, Packard Bioscience Company).

[3] = tested on: LDL; assay: Conjugated dienes experiment, copper-induced LDL oxidation; type: biochemical, human; details: compounds at 0.5, 1 and 3 μM
Protocol: Blood from healthy, fasting volunteers is collected in tubes containing 1 g/L of EDTA. The plasma is prepared by centrifugation at 1,000 g and 4° C. for 15 minutes. LDL is isolated by sequential ultracentrifugation. Native LDL is dialyzed by size exclusion chromatography in Sephadex G25 columns (Pharmacia, Uppsala, Sweden), with 2.7 ml of 0.01 mol pH 7.4 phosphate buffer (PB) at 4° C. The apolipoprotein B100 content is determined by immunoturbidimetry (ABX Diagnostics—Montpellier, France).
Dialyzed LDL (final concentration of 0.06 g of Apo-B/L) in PB at a final volume of 150 μL was incubated in a […] ELISA plate (flat bottom, transparent to UV, Corning®) with 10 μL of methanol in the presence or absence (control) of the compounds object of the study. 10 μL of a 100 μM copper sulfate solution (final concentration of […]) are then added. To minimize evaporation during prolonged incubation periods, 10 μL of mineral oil (Sigma-Aldrich) are added on the surface of the reaction mixture. […] The absorbance at 234 nm is continuously monitored every 15 minutes for 24 hours in an Infinite M200 plate reader (TECAN IBERICA, Männedorf, Switzerland). The controls and the samples (containing concentrations of the compounds to be assayed of 0.5, 1 and 3 μM) were evaluated in the same assay in duplicate and each experiment was repeated three times. […]

SMILES | reduction of intake with respect to the control group [1] | CB1 Ki (M) [2] | CB1 pKi [2] | Ki ([2]; read-out: CB1 Ki) | LDL antioxidant activity (lag-time until formation of conjugated dienes) [3] | Ki ([2]; read-out: CB1 pKi (converted))
CCCCCCCC/C=C\CCCCCCCCOCCc1ccc2c(c1)OCO2 [Example 2, (Z)-1-(2-(3,4-methylenedioxyphenyl)ethoxy)octadec-9-ene] | about 25% | No affinity | No affinity | – | – | –
CCCCCCCC/C=C\CCCCCCCCOCCc1ccccc1 [Example 3, (Z)-1-(2-phenylethoxy)octadec-9-ene] | about 25% | No affinity | No affinity | – | – | –
CCCCC/C=C\C/C=C\CCCCCCCCOCCc1ccc2c(c1)OCO2 [Example 5, (9Z,12Z)-1-(2-(3,4-methylenedioxyphenyl)ethoxy)-octadeca-9,12-diene] | – | – | – | 22.5 µM | – | –
CCCCC/C=C\C/C=C\CCCCCCCCOCCc1ccc(O)c(O)c1 [Example 10, (9Z,12Z)-1-(2-(3,4-dihydroxyphenyl)ethoxy)-octadeca-9,12-diene] | 50% | – | – | 7.49 µM | activity similar to that of hydroxytyrosol at the three assayed concentrations | 7.59 µM
